According to ChEMBL document CHEMBL5357048, “A survey of stapling methods to increase affinity, activity, and stability of ghrelin analogues” (RSC Med Chem, 2024):
pEC50, pIC50: −log10 of the molar value.

Tests used:
[1] = target: T1, Growth hormone secretagogue receptor type 1 (Homo sapiens, UniProt Q92847); assay: Displacement of [125I]ghrelin from GHSR1a in HEK293 cells by competitive binding assay; type: cell-based
[2] = target: T1, Growth hormone secretagogue receptor type 1; assay: Agonist activity at eYFP/RLuc-tagged GHSR1a (unknown origin) transfected in HEK293 cells assessed as beta-arrestin 1 recruitment incubated for 20 mins by BRET assay; type: functional, cell-based
[3] = target: T1, Growth hormone secretagogue receptor type 1; assay: Displacement of […] [125I]-ghrelin from eYFP-labelled GHSR1a (unknown origin) transfected in HEK293 cells incubated for 20 mins by radioligand binding assay; type: cell-based
[4] = target: T1, Growth hormone secretagogue receptor type 1; assay: Agonist activity at eYFP/RLuc-tagged GHSR1a (unknown origin) transfected in HEK293 cells assessed as beta-arrestin 2 recruitment incubated for 20 mins by BRET assay; type: functional, cell-based

T1 sequence (Q92847 whole entry): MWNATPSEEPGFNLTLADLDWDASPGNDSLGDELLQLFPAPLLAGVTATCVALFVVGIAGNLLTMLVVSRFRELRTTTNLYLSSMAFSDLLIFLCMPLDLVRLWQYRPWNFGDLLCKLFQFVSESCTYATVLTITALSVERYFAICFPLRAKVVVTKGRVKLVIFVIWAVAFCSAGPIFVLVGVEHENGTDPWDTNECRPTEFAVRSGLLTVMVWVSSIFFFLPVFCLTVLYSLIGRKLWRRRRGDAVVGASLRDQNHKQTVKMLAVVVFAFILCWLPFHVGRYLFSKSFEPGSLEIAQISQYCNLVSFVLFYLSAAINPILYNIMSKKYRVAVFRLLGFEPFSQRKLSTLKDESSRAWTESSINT

| SMILES | pIC50 [1] | pEC50 [2] | pIC50 [3] | pEC50 [4] |
| --- | --- | --- | --- | --- |
| CCCCCCCC(=O)OC[C@H](NC(=O)[C@H](CO)NCC(N)=O)C(=O)N[C@@H](Cc1ccccc1)C(=O)N[C@@H](CC(C)C)C(=O)N[C@@H](CO)C(=O)N1CCC[C@H]1C(=O)N[C@@H](CCC(=O)O)C(=O)N[C@@H](Cc1c[nH]cn1)C(=O)N[C@@H](CCC(N)=O)C(=O)N[C@@H](CCCNC(=N)N)C(=O)N[C@H](C(=O)N[C@@H](CCC(N)=O)C(=O)N[C@@H](CCC(N)=O)C(=O)N[C@@H](CCCNC(=N)N)C(=O)N[C@@H](CCCCN)C(=O)N[C@@H](CCC(=O)O)C(=O)N[C@@H](CO)C(=O)N[C@@H](CCCCN)C(=O)N[C@@H](CCCCN)C(N)=O)C(C)C | 8.10 |  |  |  |
| CCCCCCCC(=O)OC[C@H](NC(=O)[C@H](CO)NCC(N)=O)C(=O)N[C@@H](Cc1ccccc1)C(=O)N[C@@H](CC(C)C)C(=O)N[C@@H](CO)C(=O)N1CCC[C@H]1C(=O)N[C@@H](CCC(=O)O)C(=O)N[C@@H](Cc1c[nH]cn1)C(=O)N[C@@H](CCC(N)=O)C(=O)N[C@@H](CCCNC(=N)N)C(=O)N[C@@]1(C)CCC/C=C\CCC[C@@](C)(C(=O)N[C@@H](CCC(=O)O)C(=O)N[C@@H](CO)C(=O)N[C@@H](CCCCN)C(=O)N[C@@H](CCCCN)C(=O)O)NC(=O)[C@H](CCCNC(=N)N)NC(=O)[C@H](CCC(N)=O)NC(=O)[C@H](CCC(N)=O)NC1=O |  | 7.11 | 8.84 | 6.94 |
| CCCCCCCC(=O)OC[C@H](NC(=O)[C@H](CO)NCC(N)=O)C(=O)N[C@@H](Cc1ccccc1)C(=O)N[C@@H](CC(C)C)C(=O)N[C@@H](CO)C(=O)N1CCC[C@H]1C(=O)N[C@@H](CCC(=O)O)C(=O)N[C@@H](Cc1c[nH]cn1)C(=O)N[C@@H](CCC(N)=O)C(=O)N[C@@H](CCCNC(=N)N)C(=O)N[C@H]1CSCc2ccc(cc2)CSC[C@@H](C(=O)N[C@@H](CCC(=O)O)C(=O)N[C@@H](CO)C(=O)N[C@@H](CCCCN)C(=O)N[C@@H](CCCCN)C(=O)O)NC(=O)[C@H](CCCNC(=N)N)NC(=O)[C@H](CCC(N)=O)NC(=O)[C@H](CCC(N)=O)NC1=O |  | 7.04 | 8.31 | 7.15 |
